# Source: patent publication US20210060006A1, “COMPOSITIONS AND METHODS FOR TREATING GLIOBLASTOMA BY MODULATING A MGMT ENHANCER” (The Trustees of Columbia University in the City of New York, priority 2018, published 2021)
# Tests used:
# MGMT [1] = details: combination with TMZ compared to TMZ alone; cited from earlier work
# [2] = system: SKMG3 parental cells and enhancer deletion clones; test: Clonogenic assay of TMZ sensitivity; type: cell-based, human; details: for IC50: Homo sapiens
# Experimental: Cell viability was determined using clonogenic assay.
# FIG. 5F is a summary of TMZ IC50 in SKMG3 clones with or without O6BG pre-treatment.
# Clonogenic assays were performed to assess the effect of disrupted enhancer on TMZ sensitivity. Briefly, SKMG3 parental cells and enhancer deletion clones were plated in 6 wells plates (250 cells/well), treated with graded concentration of TMZ in presence or absence of O6BG and were cultured for 2 weeks. Colonies were fixed and stained with crystal violet (0.005% (w/v) Crystal violet, 25% (v/v) Methanol). Colonies with >50 cells were manually counted, IC50 calculated by GraphPad Prism 7 using multiparametric nonlinear regression model.
# MGMT [3] = details: SAHA in combination with TMZ; cited from earlier work
smiles,measurement,setting,value
"Nc1nc(OCc2ccccc2)c2nc[nH]c2n1 [O6BG, O6-benzylguanine]",clinical benefit,MGMT [1],no clinical benefit
same,hematologic toxicities,MGMT [1],enhanced hematologic toxicities
same,therapeutic window,MGMT [1],reduced therapeutic window
same,TMZ sensitizing effect of enhancer deletion,[2]; group pre-treated with 10 μM O6BG 1 h prior to temozolomide,not observed
O=C(CCCCCCC(=O)Nc1ccccc1)NO [SAHA],MGMT expression,MGMT [3],promotes elevation of MGMT expression
"Cn1nnc2c(C(N)=O)ncn2c1=O [TMZ, temozolomide]",IC50,[2]; K-M enhancer deleted (3.3 kb) SKMG3 clones,< 10 µM
same,IC50,[2]; parental SKMG3 lines and wild type control clone,> 100 µM
